One experiment concerns tubulin. The conditions noted are these: read-out: tubulin polymerization IC50, cited from earlier work.
Experiment [1] concerns the target CA IX. Particulars: cited from earlier work.
The subject of experiment [2] is MCF-7 (breast adenocarcinoma) cells. Nature of the experiment: MTT antiproliferative assay, MCF-7. Type of experiment: cell-based. The conditions noted are these: Homo sapiens, read-out: IC50 MCF-7. As to the method: (§1) . All cell lines were obtained from the Vacsera Cell Culture Library, Tissue Culture Unit, Cairo, Egypt, with ATCC certification. […] Check Appendix A for additional information.
(§2) . Cells were cultured in their respective recommended media supplemented with 10% fetal bovine serum and 1% penicillin-streptomycin and maintained at 37 °C in a humidified atmosphere containing 5% CO₂. Cell viability was assessed using the MTT assay, following the protocol provided with the In Vitro Toxicology Assay Kit, MTT Based (Sigma-Aldrich, TOX-1). Briefly, cells were seeded in 96-well plates at a density of 5 × 10³ cells/well and allowed to adhere overnight. […] Subsequently, 10 µL of reconstituted MTT solution (5 mg/mL in serum-free, phenol red-free medium) was added to each well and incubated for 3 h at 37 °C. The resulting formazan crystals were dissolved by adding 100 µL of the MTT Solubilization Solution, and the plates were gently shaken to ensure complete solubilization. Absorbance was recorded at 570 nm with a reference wavelength of 690 nm using a microplate reader. Cell viability was expressed as a percentage relative to untreated control cells. All experiments were conducted in triplicate, and IC₅₀ values were determined using linear regression analysis.
A general note: Tetrazolium dyes change colour on reduction, which living cells bring about.

For experiment [3], the system named is WI-38 normal lung fibroblast cells. Nature of the experiment: MTT cytotoxicity assay, normal WI-38 fibroblasts. Particulars: Homo sapiens, 48 h, WI-38 normal fibroblasts. In kind it is cell-based. On the procedure:
(§3) All cell lines were obtained from the Vacsera Cell Culture Library, Tissue Culture Unit, Cairo, Egypt, with ATCC certification. The assay enabled the detection of membrane-compromised cells based on the fluorescence intensity of DNA binding. Check Appendix A for additional information.
as §2, with “Cells” for “. Cells”

The test system of experiment [4] is HT-29 (colon adenocarcinoma) cells. In words: MTT antiproliferative assay, HT-29. Type of experiment: cell-based. The conditions noted are these: Homo sapiens, 48 h, HT-29 colorectal cancer cells. As to the method: as §3
as §2, with “Cells” for “. Cells”

The subject of experiment [5] is 786-O (renal carcinoma) cells. Nature of the experiment: MTT antiproliferative assay, 786-O. Particulars: Homo sapiens, read-out: IC50 786-O. Type of experiment: cell-based. On the procedure: as §3
as §2, with “Cells” for “. Cells”

For experiment [6], the system named is A549 (lung carcinoma) cells. Nature of the experiment: MTT antiproliferative assay, A549. Type of experiment: cell-based. Particulars: Homo sapiens, read-out: IC50 A549. On the procedure:
as §1, §2

For the next experiment, the system named is Bcl-2. In words: Bcl-2 ELISA in HT-29 cells. In kind it is cell-based, human. On the procedure:
Absorbance was measured at 450 nm to determine changes in Bcl-2 expression in response to treatment. A full description of the assay protocol is included in Appendix A (Supplementary Material).
The assay is based on a sandwich ELISA format, where human Bcl-2 is captured by a monoclonal antibody coated on a microwell plate and detected using a biotin-conjugated anti-Bcl-2 antibody followed by Streptavidin-HRP and TMB substrate. Cells were lysed using the supplied Lysis Buffer at a concentration of 5 × 10⁶ cells/mL and incubated for 1 hour at room temperature with gentle shaking. Lysates were clarified by centrifugation at 1000 × g for 15 minutes, and the supernatants were collected for immediate use or stored at –80 °C. For the assay, 20 µL of sample was added to wells along with 80 µL of Sample Diluent, followed by 50 µL of diluted biotin-conjugate. After a 2-hour incubation at room temperature, plates were washed and incubated with diluted Streptavidin-HRP for 1 hour. […] Absorbance was measured at 450 nm with optional correction between 610–650 nm. […] The corresponding absorbance values ranged from approximately 0.121 to 2.461, with a background (blank) absorbance of 0.023. Net absorbance values were calculated by subtracting the blank from each standard, and the resulting data were used to construct a calibration curve. […]
Background: An ELISA detects its analyte on a solid surface through an enzyme-linked reagent.

A further experiment has as its system caspase-9. Nature of the experiment: Caspase-9 ELISA in HT-29 cells. In kind it is cell-based, human. The text has this:
This assay employs a sandwich ELISA format, utilizing a specific capture antibody and an HRP-conjugated detection system, with absorbance measured at 450 nm. A detailed methodology is provided in Appendix A (Supplementary Material).
This solid-phase sandwich ELISA employs a monoclonal antibody pre-coated on a 96-well microplate to capture caspase-9 from samples. A rabbit polyclonal detection antibody specific to human caspase-9 is subsequently added, followed by an HRP-conjugated anti-rabbit IgG and TMB substrate for colorimetric detection. The intensity of the yellow product formed after stopping the reaction with phosphoric acid is proportional to the amount of caspase-9 present and is measured at 450 nm. […] Lysates were centrifuged at 1,000 × g for 15 minutes, and the clear supernatants were collected and either analyzed immediately or stored at –80 °C. […] Standard concentrations of 1.6, 3.1, 6.3, 12.5, 25, 50, and 100 ng/mL yielded OD values of 0.140, 0.167, 0.213, 0.239, 0.501, 0.799, and 1.639 respectively, with a blank reading of 0.042. Net OD values were calculated by subtracting the blank absorbance, and the standard curve was constructed accordingly. The concentration of caspase-9 in each sample was determined using linear regression analysis, and final values were adjusted by the dilution factor.

Experiment [7] deals with CA IX (Homo sapiens, UniProt Q16790). Nature of the experiment: Carbonic anhydrase inhibitor screening kit (colorimetric), CA IX.
Another experiment deals with p53. In words: p53 ELISA in HT-29 cells. In kind it is cell-based, human.
Another experiment addresses CA XII (Homo sapiens, UniProt O43570). Nature of the experiment: Carbonic anhydrase inhibitor screening kit (colorimetric), CA XII.
The next experiment addresses CA II (Homo sapiens, UniProt P00918). In words: Carbonic anhydrase inhibitor screening kit (colorimetric), CA II.
Another experiment concerns caspase-3. In words: Active caspase-3 ELISA in HT-29 cells. In kind it is cell-based, human. From the text: This sandwich ELISA detects caspase-3 cleaved at Asp175/Ser176, enabling sensitive colorimetric measurement at 450 nm. Additional procedural details are provided in Appendix A (Supplementary Material).
This assay is based on a solid-phase sandwich ELISA principle, where an anti-human caspase-3 monoclonal antibody is pre-coated onto a microplate. Cell lysates or standards are captured by this antibody, followed by the addition of a rabbit polyclonal detection antibody specific for active caspase-3 cleaved at Asp175/Ser176. Detection is then performed using HRP-conjugated anti-rabbit IgG and TMB substrate. Cell lysates were prepared in protease inhibitor-supplemented cell extraction buffer and clarified by centrifugation. Samples were diluted in Standard Diluent Buffer and added to the wells along with a standard curve of human active caspase-3. The standard concentrations included 39, 78, 156, 313, 625, 1250, and 2500 ng/mL, which yielded optical density (OD) readings ranging from 0.192 to 2.733. A blank reading of 0.018 was subtracted from each standard OD, and the resulting data were used to generate a standard curve. […] After color development, the reaction was stopped with acid, and absorbance was read at 450 nm. The concentration of active caspase-3 in treated samples was determined using linear regression analysis of the standard curve. […]

The test system of the next experiment is Bax. In words: Bax ELISA in HT-29 cells. In kind it is cell-based, human. As to the method: Changes in Bax levels were quantified in treated cell lysates to assess the apoptotic response. Comprehensive assay details are available in Appendix A (Supplementary Material).
This sandwich-based immunoassay utilizes a monoclonal antibody specific for human BAX-α to capture and quantify the protein in cell lysates. Cells were lysed using the provided Cell Lysis Buffer, freshly supplemented with phenylmethylsulfonyl fluoride (PMSF, 1 mM) and protease inhibitor cocktail (PIC, 0.5 µL/mL). Lysates were incubated on ice, vortexed, and centrifuged at 16,000 rpm for 15 minutes at 4 °C. The supernatants were collected and diluted with the kit's Assay Buffer. A standard curve was generated using BAX-α standards with concentrations of 62.5, 125, 250, 500, 1000, and 2000 ng/mL. The corresponding net absorbance values (after subtracting the average blank OD of 0.023) were 0.110, 0.192, 0.338, 0.781, 1.443, and 2.496, respectively. Absorbance was measured at 450 nm with a reference wavelength of 570–590 nm. BAX concentrations in the samples were calculated using linear regression analysis based on the standard curve obtained. The assay provided a sensitive and quantitative measure of BAX modulation in response to compound 7.

In the next experiment the target is CA I (Homo sapiens, UniProt P00915). Nature of the experiment: Carbonic anhydrase inhibitor screening kit (colorimetric), CA I.
Chain of CA I (P00915 whole entry): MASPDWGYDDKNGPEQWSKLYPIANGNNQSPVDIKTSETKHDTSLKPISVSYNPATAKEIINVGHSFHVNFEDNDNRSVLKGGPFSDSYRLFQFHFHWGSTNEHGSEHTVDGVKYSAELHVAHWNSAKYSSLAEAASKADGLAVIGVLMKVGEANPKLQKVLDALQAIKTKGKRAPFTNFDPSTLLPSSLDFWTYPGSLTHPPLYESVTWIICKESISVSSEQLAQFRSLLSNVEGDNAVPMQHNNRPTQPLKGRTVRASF

Like-named read-outs stand apart in the source and are kept apart here.

Chain of CA XII (O43570 25-354): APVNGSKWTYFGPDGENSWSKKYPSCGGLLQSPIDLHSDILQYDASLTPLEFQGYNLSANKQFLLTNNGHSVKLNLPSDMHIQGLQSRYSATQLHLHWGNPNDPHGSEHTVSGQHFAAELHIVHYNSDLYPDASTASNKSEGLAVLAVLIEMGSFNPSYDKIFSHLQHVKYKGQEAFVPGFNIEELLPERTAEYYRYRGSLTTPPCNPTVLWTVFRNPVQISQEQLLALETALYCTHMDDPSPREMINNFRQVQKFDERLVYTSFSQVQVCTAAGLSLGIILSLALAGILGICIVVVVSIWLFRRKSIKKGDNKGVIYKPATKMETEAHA

`COc1ccc2[nH]cc(/C=N/Nc3nc(-c4cccc(Br)c4)cs3)c2c1` [Compound VII]: the IC50 in the experiment with tubulin (ref Wang et al., 2024) is 1680 nM.

Take `NS(=O)(=O)c1ccc(NC(=O)Nc2cc3cc(Br)ccc3o2)cc1` [Compound II]: the Ki on CA IX [1] (ref Shaldam et al., 2021) is 5.5 nM.

Take `COc1ccc(/C=C\c2cc(OC)c(OC)c(OC)c2)cc1O` [CA-4, combretastatin A-4, reference compound]: the half-maximal inhibitory concentration (IC50) came to 1820 nM in experiment [2] (MCF7, MTT assay, 48 h, MCF-7 breast cancer cells); 28100 nM in experiment [3]; 2150 nM in experiment [4]; 3270 nM in [5] (786-0, MTT assay, 48 h, 786-O renal cancer cells); 440 nM in experiment [6] (MTT assay, 48 h, A549 lung cancer cells).

`Cc1[nH]c(=S)sc1C(=O)/C=C/c1ccc(S(N)(=O)=O)cc1` [Compound 7, (E)-4-(3-(4-methyl-2-thioxo-2,3-dihydrothiazol-5-yl)-3-oxoprop-1-en-1-yl)benzenesulfonamide]: in the experiment on Bcl-2 (ELISA, DMSO control 19.25 ± 0.43), the “Bcl-2 Conc” value is 6.212 ± 0.093 pg/mL. In addition, the “Bcl-2 Fold change” value with Bcl-2 (versus DMSO control) stood at 0.323. The “Caspase-9 Conc” value with caspase-9 (ELISA, DMSO control 5.09 ± 0.26) was found to be 49.39 ± 1.13 ng/mL. Besides, the “Caspase-9 Fold change” value with caspase-9 (versus DMSO control) worked out at 9.70. The IC50 was determined as 3630 nM in [2] (MCF7, 48 h); 21 ± 4 nM against CA IX [7]; 1560 nM in [5] (786-0, 48 h); 114 ± 12 nM on CA XII; 381 ± 45 nM against CA II; 1900 ± 250 nM at CA I. Besides, the IC50 in [6] (A549, 48 h) is 6820 nM. For the same molecule, the “P53 Conc” value in the experiment on p53 (ELISA, DMSO control 150.66 ± 3.33) is recorded as 1,224.00 ± 6.67 pg/mL. Moreover, the “P53 Fold change” value with p53 (versus DMSO control) stood at 8.12. The “Caspase 3 Conc” value in the experiment on caspase-3 (ELISA, DMSO control 57.64 ± 1.36) came out at 511.27 ± 13.18 pg/mL. Also, the “Caspase 3 Fold change” value in the experiment on caspase-3 (versus DMSO control) turned out to be 8.87. In the experiment with Bax (ELISA, DMSO control 68.50 ± 1.67), the “Bax Conc” value amounted to 392.25 ± 14.58 pg/mL. In addition, the “Bax Fold change” value in the experiment with Bax (versus DMSO control) was found to be 5.73.

Turning to `CCOc1ccc(-c2sc(N)nc2-c2ccc(OC)c3ccccc23)cc1` [compound VI], in the experiment on tubulin (ref Wang et al., 2021), the IC50 was 3300 nM.

Take `COc1cc(/C=C/C(=O)c2nnn(-c3ccc(S(N)(=O)=O)cc3)c2C)cc(OC)c1OC` [compound V]: the Ki at CA IX [1] (ref Abdelhakeem et al., 2024) was 30 nM.

`COc1cc(-c2csc(NC(=O)CNc3ccc([N+](=O)[O-])cc3)n2)cc(OC)c1OC` [compound VIII]: the IC50 in the experiment with tubulin (ref El-Abd et al., 2022) is 2000 nM.

A word on the IC50: it is the concentration that gives 50% inhibition. The term Ki denotes a dissociation constant, usually derived from enzyme kinetics or from competition with a known ligand.

Source of the values: paper PMC12260535, “A novel thiazole-sulfonamide hybrid molecule as a promising dual tubulin/carbonic anhydrase IX inhibitor with anticancer activity” (Frontiers in Chemistry, 2025).
